Measurements: patent US6281214A, “Biphenyl derivatives” (Eisai Co., Ltd, priority 1994, dated 2001)

How the values were obtained:
Parameters in all cases: species or system SD rats
serotonin S2 receptor = molecular target: T1, serotonin S2 receptor (Rattus norvegicus, UniProt P14842); experiment: serotonin S2 receptor binding test ([3H] Ketanserin Binding Test); settings: 1 nM [3H] Ketanserin, rat cortex, 37° C., 15 minutes
T1 construct: The receptor fraction prepared from the cortex was molten and suspended; from tissue; host or cells: cerebral cortex of SD rats (membrane fraction)
T1 sequence (P14842 whole entry): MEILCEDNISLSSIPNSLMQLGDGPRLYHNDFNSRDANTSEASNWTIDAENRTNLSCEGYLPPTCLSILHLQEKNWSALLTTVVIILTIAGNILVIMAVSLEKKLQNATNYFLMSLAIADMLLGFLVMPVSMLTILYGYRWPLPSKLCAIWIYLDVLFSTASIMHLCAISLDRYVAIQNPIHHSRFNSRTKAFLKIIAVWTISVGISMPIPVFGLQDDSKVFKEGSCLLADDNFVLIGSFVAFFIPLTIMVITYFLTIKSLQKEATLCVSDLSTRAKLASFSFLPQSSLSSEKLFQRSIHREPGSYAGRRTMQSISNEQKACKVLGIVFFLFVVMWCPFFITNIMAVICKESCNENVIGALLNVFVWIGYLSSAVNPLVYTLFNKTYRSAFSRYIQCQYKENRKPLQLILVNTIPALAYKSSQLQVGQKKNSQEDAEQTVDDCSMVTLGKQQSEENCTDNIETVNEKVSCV
Description: (§1) The compounds of the present invention were subjected to each of serotonin S2 receptor binding test, dopamine D2 receptor binding test and adrenergic α1 receptor binding test.
(§2) The following reagents were used in this test.
(§3) These reagents and samples were each dissolved in 10% ethanol before use. Among them, water-insoluble compounds were each dissolved in ethanol and the obtained solution was diluted with distilled water to an ethanol concentration of 10%. Further, Methylsergide maleate was used in a state dissolved in distilled water.
(§4) SD rats aged 6 to 8 weeks were used.
(§5) SD rats were each slaughtered with a guillotine to extirpate its cerebrum. The cortex and corpus striatum were separated from the cerebrum. The former was used in serotonin S2 receptor binding test and adrenergic α1, receptor binding test, while the latter was used in dopamine D2 receptor binding test.
(§6) The cortex was homogenized in a 0.32 M sucrose solution in an amount ten times the wet weight of the cortex by the use of a teflon glass homogenizer and the resulting mixture was centrifuged at 10,000×G for 20 minutes. The obtained sediment was suspended in 50 mM Tris hydrochloride (pH 7.4) in an amount ten times the initial wet weight of the cortex by the use of a histocothrom, and the obtained suspension was centrifuged at 10,000×G for 20 minutes. This operation was repeated twice. The obtained sediment was suspended in 50 mM Tris hydrochloride (pH 7.4) in an amount 20 times the initial wet weight of the cortex by the use of a histocothrom. The suspension thus prepared was used as a receptor fraction. This receptor fraction was stored at -80° C. until use.
4. [^3 ] Ketanserin Binding Test
The receptor fraction prepared from the cortex was molten and suspended by the use of a histocothrom. The resulting suspension was incubated together with 1 nM-[^3 H] Ketanserin at 37° C. for 15 minutes. The resulting reaction system was filtered through a Whatman GF/B glass filter with an MR-30R type cell harvester mfd. by Blandel. The resulting filter was washed twice with 5 ml of 50 mM Tris hydrochloride (ph 7.4) cooled with ice and the radioactivity of the Ketanserin bound the receptor was determined by the use of a liquid scintillation counter with 5 ml of ACS II. The binding detected in the presence of […] of Methylsergide was regarded as nonspecific binding.
(§7) Each IC50 value was calculated by the probit method and each Ki value was determined by the following formula: [formula]
(§8) In the above formula, C represents the concentration of radioligand, and Kd represents the affinity of radioligand for the receptor as determined by the Scatchard analysis.

dopamine D2 receptor = molecular target: T2, dopamine D2 receptor (Rattus norvegicus, UniProt P61169); experiment: dopamine D2 receptor binding test ([3H] Spiperone Binding Test); settings: 1 nM [3H] Spiperone, rat corpus striatum, room temperature, 60 minutes; read-out: Ki value, dopamine D2 receptor
T2 construct: the receptor fraction prepared from the corpus striatum was molten and suspended; from tissue; host or cells: corpus striatum of SD rats (membrane fraction)
T2 sequence (P61169 whole entry): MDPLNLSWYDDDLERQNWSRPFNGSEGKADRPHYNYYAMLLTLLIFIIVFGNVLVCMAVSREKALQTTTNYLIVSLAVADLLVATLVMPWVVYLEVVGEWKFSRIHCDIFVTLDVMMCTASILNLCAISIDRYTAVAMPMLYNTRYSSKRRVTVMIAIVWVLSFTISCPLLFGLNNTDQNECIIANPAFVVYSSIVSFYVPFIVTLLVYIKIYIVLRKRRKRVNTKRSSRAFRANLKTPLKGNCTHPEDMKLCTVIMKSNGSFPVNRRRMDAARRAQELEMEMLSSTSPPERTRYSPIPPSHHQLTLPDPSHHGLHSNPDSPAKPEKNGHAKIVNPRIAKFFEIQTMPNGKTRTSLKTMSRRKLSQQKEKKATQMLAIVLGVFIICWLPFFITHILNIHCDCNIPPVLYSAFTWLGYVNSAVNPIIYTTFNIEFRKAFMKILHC
Description: as §1, §2, §3, §4, §5
On the other hand, the corpus striatum was homogenized in a 0.32 M sucrose solution in an amount ten times the wet weight of the corpus striatum by the use of a teflon glass homogenizer and the obtained mixture was centrifuged at 1,000×G for 20 minutes. The obtained supernatant was centrifuged at 10,000×G for 20 minutes. The obtained sediments were suspended together in 50 mM Tris hydrochloride (pH 7.4) in an amount ten times the initial wet weight of the corpus striatum by the use of a histocothrom, and the obtained suspension was centrifuged at 10,000×G for 20 minutes. This operation was repeated thrice. The resulting sediment was suspended in 50 mM Krebs-Tris (pH 7.4) in an amount 100 times the initial wet weight of the corpus striatum by the use of a histocothrom. The obtained suspension was used as a receptor fraction. This receptor fraction was stored at -80° C. until use.
as §7, §8
5. [^3 H] Spiperone Binding Test
(§9) This test was conducted in the same manner as that of the binding test of [^3 H] Ketanserin except that the receptor fraction prepared from the corpus striatum was molten and suspended with a histocothrom, and the obtained suspension was incubated together with 1 nM-[^3 H], Spiperone at room temperature for 60 minutes and that the binding detected in the presence of 10 μl of Spiperone was regarded as nonspecific binding.

adrenergic α1 receptor = adrenergic α1 receptor binding test ([3H] Prazosin Binding Test); settings: 1 nM [3H] Prazosin, rat cortex, room temperature, 60 minutes
Description: as §1, §2, §3, §4, §5, §6, §7, §8
6. [^3 H] Prazosin Binding Test
as §9, with “cortex” for “corpus striatum”, “H] Prazosin” for “H], Spiperone”, “Phentolamine” for “Spiperone”

| Structure (SMILES) | Ki (serotonin S2 receptor) [nM] | Ki (dopamine D2 receptor) [nM] | Ki (adrenergic α1 receptor) [nM] |
| --- | --- | --- | --- |
| CCCc1cc(-c2ccccc2)cc(N2CCN(CC)CC2)c1OC [Example 113, 1-Ethyl-4-(3-phenyl-5-propyl-6-methoxy)phenylpiperazine hyrochloroide] | 21.1 | 8.73 | 28.9 |
| CCCS(=O)(=O)c1cc(N2CCN(CC)CC2)cc(-c2ccccc2)c1Cl [Example 191] | 3.76 | 1.65 | 21.2 |
| CCN1CCN(c2cc(C(=O)CC3CC3)c(OC)c(-c3ccccc3)c2)CC1 [Example 108, Ethyl-4-(3-phenyl-4-methoxy-5-cyclopropaneacetyl)phenylpiperazine] | 4 | 162 | 408 |
| CCCS(=O)(=O)c1cc(N2CCN(C)CC2)cc(-c2ccccc2Cl)c1Cl [Example 180, 1-Methyl-4-[3-(2-chlorophenyl)-4-chloro-5-propanesulfonyl]phenylpiperazine] | 3.48 | 13 | > 100 |
| CCCS(=O)(=O)Nc1cc(N2CCN(CC)CC2)cc(-c2ccccc2C#N)c1Cl [Example 197, 1-Ethyl-4-[3-(2-cyanophenyl)-4-chloro-5-propanesulfonylamino]phenylpiperazine] | 8.86 | 1.4 | 31.4 |
| CCCCS(=O)(=O)c1cc(N2CCN(CC)CC2)cc(-c2ccccc2)c1OC [Example 171, 1-Ethyl-4-(3-phenyl-4-methoxy-5-butanesulfonyl)phenylpiperazine] | 2.74 | 86.7 | > 1000 |
| C=CCCC(F)c1cc(N2CCN(CC)CC2)cc(-c2ccccc2C)c1Cl (stereo not drawn) [Example 160, 1-Ethyl-4-[3-(2-tolyl)-4-chloro-5-(1-fluoro-4-pentenyl)]phenylpiperazine] | 14.8 | 13.6 | > 1000 |
| CCN1CCN(c2cc(-c3ccccc3C)c(Cl)c(S(=O)(=O)N(C)C)c2)CC1 [Example 154, 1-Ethyl-4-[3-(2-tolyl)-4-chloro-5-dimethylaminosulfonyl]phenylpiperazine] | 153 | 2.59 | > 1000 |
| CN1CCN(c2cc(NS(=O)(=O)Cc3ccccc3)c(Cl)c(-c3ccccc3Cl)c2)CC1 [Example 179, 1-Methyl-4-[3-(2-chlorophenyl)-4-chloro-5-benzylsulfonylamino]phenylpiperazine] | 6.54 | 6.08 | 72.7 |
| CCN1CCN(c2cc(-c3ccccc3C)c(F)c(S(C)(=O)=O)c2)CC1 [Example 155] | 180 | 41 | 845 |
| CCCc1cc(N2CCN(CC)CC2)cc(-c2ccc(F)cc2)c1OC [Example 65] | 26.6 | 6.6 | 79 |
| CCCc1cc(N2CCN(CC)CC2)cc(-c2ccccc2OC)c1OC [Example 132] | 392 | 281 | > 1000 |
| CCN1CCN(c2cc(-c3ccccc3)c(OC)c(C(F)Cc3ccccc3)c2)CC1 (stereo not drawn) [Example 96, 1-Ethyl-4-[3-phenyl-4-methoxy-5-(1-fluorophenethyl)]phenylpiperazine] | 35.3 | 1.33 | > 1000 |
| CCN1CCN(c2cc(COCC3CC3)c(Cl)c(-c3ccccc3C)c2)CC1 [Example 176, 1-Ethyl-4-[3-(2-tolyl)-4-chloro-5-cyclopropylmethoxymethyl]phenylpiperazine] | 178 | > 100 | > 1000 |
| CCN1CCN(c2cc(-c3ccccc3C)c(Cl)c(C3SCCCS3)c2)CC1 [Example 190, 1-Ethyl-4-[3-(2-tolyl)-4-chloro-5-(1,3-dithian-2-yl)phenylpiperazinepropanedithio]phenylpiperazine] | 18.5 | 40.4 | > 1000 |
| CCN1CCN(c2cc(-c3ccccc3)c(OC)c(C3OCCCO3)c2)CC1 [Example 107, 1-Ethyl-4-[3-phenyl-4-methoxy-5-(1,3-dioxan-2yl)]phenylpiperazine] | > 1000 | 429 | > 1000 |
| CCN1CCN(c2cc(CO)c(OC)c(-c3ccccc3)c2)CC1 [Example 102, 1-Ethyl-4-(3-phenyl-4-methoxy-5-hydroxymethyl)phenylpiperazine] | > 1000 | > 1000 | 525 |
| CCCCS(=O)(=O)Nc1cc(N2CCN(C)CC2)cc(-c2ccccc2Cl)c1Cl [Example 36, 1Methyl-4-[3-(2-chlorophenyl)-4-chloro-5-butanesulfonylamino]phenylpiperazine] | 4.04 | 1.26 | 25.3 |
| CCN1CCN(c2cc(-c3ccccc3C)c(Cl)c(C(C)F)c2)CC1 (stereo not drawn) [Example 52] | 21.6 | 0.99 | > 1000 |
| CCN1CCN(c2ccc(OC(C)C)c(-c3ccccc3)c2)CC1 [Example 61, 1-Ethyl-4-(3-phenyl-4-isopropxy)phenylpiperazine] | > 1000 | > 1000 | > 1000 |
| CCCS(=O)(=O)c1cc(N2CCN(CC)CC2)cc(-c2ccccc2C)c1Cl [Example 159, 1-Ethyl-4-[3-(2-tolyl)-4-chloro-5-propanesulfonyl]phenylpiperazine] | 8.81 | 3.93 | 596 |
| CCCS(=O)(=O)Nc1cc(N2CCN(CC)CC2)cc(-c2ccc(Cl)cc2Cl)c1Cl [Example 189, 1-Ethyl-4-[3-(2,4-dichlorophenyl)-4-chloro-5-propanesulfonyamino]phenylpiperazine] | > 100 | 1.51 | 32.5 |
| CCN1CCN(c2cc(CCCOC)c(OC)c(-c3ccccc3)c2)CC1 [Example 68, 1-Ethyl-4-[3-phenyl-4-methoxy-5-(3-methoxypropyl)]phenylpiperazine] | 32 | 35.1 | 195 |
| CCCC(F)c1cc(N2CCN(CC)CC2)cc(-c2ccccc2C)c1Cl (stereo not drawn) [Example 49, 1-Ethyl-4-[3-(2-tolyl)-4-chloro-5-(1-fluorobutyl)]phenylpiperazine] | 20.1 | 6.09 | > 1000 |
| CCN1CCN(c2cc(-c3ccccc3C)c(Cl)c(S(=O)(=O)N3CCCC3)c2)CC1 [Example 141] | 92.7 | 24.9 | > 1000 |
| CCN1CCN(c2cc(-c3ccccc3)c(OC)c(S(=O)(=O)N(C)C)c2)CC1 [Example 134, 1-Ethyl-4-(3-phenyl-4-methoxy-5-dimemthylaminosulfonyl)phenylpiperazine] | 30.3 | 59.7 | > 1000 |
| CCCC(F)c1cc(N2CCN(C)CC2)cc(-c2ccccc2Cl)c1Cl (stereo not drawn) [Example 178, 1-Methyl-4-[3-(2-chlorophenyl)-4-chloro-5-(1-fluorobutyl)]phenylpiperazine] | 12.2 | 7.3 | > 1000 |
| CCN1CCN(c2cc(-c3ccccc3)c(OC)c(-c3ccccn3)c2)CC1 [Example 97, 1-Ethyl-4-[3-phenyl-4-methoxy-5-(2-pyridyl)]phenylpiperazine] | 247 | > 1000 | > 1000 |
